According to patent publication US8435969B2, “Method and compositions for treating hematological malignancies” (Gilead Sciences, Inc., priority 2006, dated 2013):
Blank lines part the entries; values can stand above or below the compound they belong to.

How the values were obtained:
[1] = Storage stability in aqueous solution; type: physicochemical; conditions: 60 hours
From the text: Parenteral (sterile aqueous) solutions of the organic acid salts of compound 1 optionally comprise a stabilizing amount of carbohydrate, typically a saccharide (mono, di or polysaccharides), glycoside or sugar alcohol (alditols). Polysaccharides should be biodegradable upon parenteral injection or infusion and include dextrins and starches, typically 3-10 units. Representative carbohydrates include hexoses, aldoses, aldohexoses, aldotrioses (e.g. glyceraldehyde), aldotetroses (e.g. erythrose), aldopentoses (e.g. arabinose), ketoses, ketohexose (e.g. fructose), ketopentoses (e.g. ribulose), maltose, sucrose, lactose, ribose, xylose, lyxose, allose, altrose, glucose, mannose, gulose, idose, galactose and talose. Of particular interest are carbohydrates conventionally used in parenteral formulations, e.g., mannitol or dextrose. The optical character of the carbohydrate is not critical, but it is desirable for the configuration to be such that the carbohydrate is biodegradable upon parenteral administration. […] On the other hand, storage in buffered solutions at pH 2, 7 and 9 under the same conditions lead to substantial degradation of compound 1: About 100%,18% and 76% by weight, respectively.

[2] = Solubility of the succinate salt; type: physicochemical; conditions: pH 4.2-4.7
[3] = dog, in vivo, iv, 0.2 mg/kg
Description: Distribution of Prodrugs between PBMCs and Plasma in Dogs • Dogs were administered various prodrugs of cpr-PMEDAP as 0.2 mg/kg 30 minute IV infusions. […] Alanine was the L isomer. • Blood was collected into potassium EDTA and separated by centrifugation. Primary blood mononuclear cells (PBMCs) were collected using CPT tubes (sodium citrate). • For analysis, plasma samples were precipitated by addition of 100 μL acetonitirile containing internal standards (D4AP and TDF) to 100 μL of plasma for prodrug analysis. After protein precipitation by centrifugation, 100 μA was transferred into another tube to be dried and then reconstituted in 100 μL water with 0.2% formic acid. An aliquot of 20 μL was injected onto the column for LC/MS/MS analysis. Analysis was done using a 150×2.0 mm, 4 μm Synergi Fusion-RP 80A column (Phenomenex) and a multistage linear gradient from 0.5 to 99% acetonitrile in the presence of 0.2% formic acid at 0.25 mL/min. Analytes were detected using a Sciex API-4000 mass spectrometer using electrospray ionization in positive MRM mode. […] Separate aliquots of cells from each time point resuspended in 100% serum were used to establish the cell quantities in each sample. Cell samples were normalized to 15×10^6 cells per sample. Varying degrees of hemolyses have been observed. […] 20 μL was injected for LC/MS/MS analysis using a 50×2.0 mm, 4 μm Synergi Hydro-RP 80A column (Phenomenex) and a multistage linear gradient from 0 to 95% acetonitrile in the presence of 0.2% formic acid at 1.0 mL/min. Analytes were detected using a Sciex API-4000 mass spectrometer using electrospray ionization in positive MRM mode. • After drying, samples for dephosphorylation were treated with 1 U of calf intestinal phosphatase (alkaline phosphatase, Sigma) for 2 h in manufacturer provided buffer. Samples were then adjusted to 60% acetonitrile dried and resuspended in 60% acetonitrile containing internal standards (TDF and D4AP) and analyzed for cpr-PMEDAP as described for direct PBMC analysis.

[4] = Hygroscopicity; type: physicochemical; conditions: solid form

SMILES: CC(C)OC(=O)[C@H](C)NP(=O)(COCCn1cnc2c(NC3CC3)nc(N)nc21)N[C@@H](C)C(=O)OC(C)C [BisAlaiPr]
PBMC to Plasma ratio [3]: 1.2

SMILES: CC(C)OC(=O)[C@H](C)NP(=O)(COCCn1cnc2c(NC3CC3)nc(N)nc21)Oc1ccccc1 (stereo partly drawn) [MonoAlaiPr]
PBMC to Plasma ratio [3]: 17

Second part, the compound after the results:

Degradation on storage ([1]; 5% dextrose (by weight of solution; pH about 4.2, unbuffered), 40° C.): without significant degradation
Degradation on storage ([1]; buffered solution pH 2, 40° C.): About 100 % by weight
Degradation on storage ([1]; buffered solution pH 9, 40° C.): ~76 % by weight
solubility [2]: > 39 mg/mL
SMILES: CCOC(=O)[C@H](C)NP(=O)(COCCn1cnc2c(NC3CC3)nc(N)nc21)N[C@@H](C)C(=O)OCC [compound 1 succinate]

PBMC to Plasma ratio [3]: 12
SMILES: C[C@H](NP(=O)(COCCn1cnc2c(NC3CC3)nc(N)nc21)Oc1ccccc1)C(=O)OC(C)(C)C (stereo partly drawn) [MonoAlatBu]

PBMC to Plasma ratio [3]: 19
SMILES: C[C@H](NP(=O)(COCCn1cnc2c(NC3CC3)nc(N)nc21)Oc1ccccc1)C(=O)OC(C)(C)C (single isomer, unassigned) [MonoAlatBu(A)]

Hygroscopicity [4]: hygroscopic
SMILES: CCOC(=O)C(C)NP(=O)(COCCn1cnc2c(NC3CC3)nc(N)nc21)NC(C)C(=O)OCC (stereo not drawn) [Compound 1]
